These results are taken from patent US11761045B2, “Splice variants associated with neomorphic SF3B1 mutants” (Eisai R&D Management Co., Ltd., priority 2015, dated 2023).

One assay concerns Nalm-6 SF3B1^K700E cells. The experiment in a line: Splice variant levels in Nalm-6 isogenic cells by RNA-Seq. It counts as cell-based, human. To be noted: additional compounds, FIG. 19. Here is the method: (§1) To investigate the broader activity of E7107 on normal and aberrant splicing, RNA from Nalm-6 isogenic cells treated for two and six hours at 15 nM was analyzed by NanoString®. […] Normal and aberrant splicing in the isogenic cell lines was also analyzed by RNA-Seq following treatment with one of additional compounds having formulas 1 or 2. […] For the RNA-Seq analysis, cells were washed with PBS after treatment with E7107 or other test compound, and RNA was isolated using PureLink (Life Technology) as reported in the manufacturer's manual. cDNA library preparation, sequencing and raw read filtering was performed as described in Ren, S. et al. “RNA-Seq analysis of prostate cancer in the Chinese population identifies recurrent gene fusions, cancer-associated long noncoding RNAs and aberrant alternative splicings.” Cell Res 22, 806-821, doi:10.1038/cr.2012.30 (2012).

A further assay concerns Nalm-6 SF3B1^K700K cells. Described as above. To be noted: additional compounds, FIG. 19. It counts as cell-based, human. Here is the method: as §1

For `C/C(=C\C=C\[C@@H](C)c1ccccn1)[C@H]1OC(=O)C[C@H](O)CC[C@@](C)(O)[C@@H](OC(=O)N2CCN(C3CCCCCC3)CC2)/C=C/[C@@H]1C` [Compound 1], the “expression of WT-associated and MUT-associated RNA isoforms by RNA-Seq” value with Nalm-6 SF3B1^K700E cells was “inhibited expression of both WT-associated and MUT-associated RNA isoforms”; in the assay on Nalm-6 SF3B1^K700K cells, “inhibited expression of both WT-associated and MUT-associated RNA isoforms”.
`C/C(=C\C=C\[C@@H](C)c1ccccn1)[C@H]1OC(=O)C[C@H](O)CC[C@@](C)(O)[C@@H](OC(=O)N2CCN(C)CC2)/C=C/[C@@H]1C` [Compound 2]: the “expression of WT-associated and MUT-associated RNA isoforms by RNA-Seq” value with Nalm-6 SF3B1^K700E cells was “inhibited expression of both WT-associated and MUT-associated RNA isoforms”; with Nalm-6 SF3B1^K700K cells, “inhibited expression of both WT-associated and MUT-associated RNA isoforms”.
